# Source: US6482849B1, “Inhibitors of α4β1 mediated cell adhesion” (Tanabe Seiyaku Co., Ltd., priority 1997, dated 2002)
# Tests used:
# [1] = molecular target: T1, α4β1 integrin (Jurkat cell adhesion to immobilized CS-1 derived peptide CLHPGEILDVPST) (Homo sapiens, UniProt P05556+P13612); assay: Jurkat-CS-1 Assay; format: cell-based; details: Jurkat cells on CS-1 peptide coated plates
# T1 construct: 100 μl of Jurkat cells (2.5×10^6 cells/ml) in DMEM plus BSA; endogenous in cells; host or cells: Jurkat T-cell line
# T1 sequence (P13612 34-1032): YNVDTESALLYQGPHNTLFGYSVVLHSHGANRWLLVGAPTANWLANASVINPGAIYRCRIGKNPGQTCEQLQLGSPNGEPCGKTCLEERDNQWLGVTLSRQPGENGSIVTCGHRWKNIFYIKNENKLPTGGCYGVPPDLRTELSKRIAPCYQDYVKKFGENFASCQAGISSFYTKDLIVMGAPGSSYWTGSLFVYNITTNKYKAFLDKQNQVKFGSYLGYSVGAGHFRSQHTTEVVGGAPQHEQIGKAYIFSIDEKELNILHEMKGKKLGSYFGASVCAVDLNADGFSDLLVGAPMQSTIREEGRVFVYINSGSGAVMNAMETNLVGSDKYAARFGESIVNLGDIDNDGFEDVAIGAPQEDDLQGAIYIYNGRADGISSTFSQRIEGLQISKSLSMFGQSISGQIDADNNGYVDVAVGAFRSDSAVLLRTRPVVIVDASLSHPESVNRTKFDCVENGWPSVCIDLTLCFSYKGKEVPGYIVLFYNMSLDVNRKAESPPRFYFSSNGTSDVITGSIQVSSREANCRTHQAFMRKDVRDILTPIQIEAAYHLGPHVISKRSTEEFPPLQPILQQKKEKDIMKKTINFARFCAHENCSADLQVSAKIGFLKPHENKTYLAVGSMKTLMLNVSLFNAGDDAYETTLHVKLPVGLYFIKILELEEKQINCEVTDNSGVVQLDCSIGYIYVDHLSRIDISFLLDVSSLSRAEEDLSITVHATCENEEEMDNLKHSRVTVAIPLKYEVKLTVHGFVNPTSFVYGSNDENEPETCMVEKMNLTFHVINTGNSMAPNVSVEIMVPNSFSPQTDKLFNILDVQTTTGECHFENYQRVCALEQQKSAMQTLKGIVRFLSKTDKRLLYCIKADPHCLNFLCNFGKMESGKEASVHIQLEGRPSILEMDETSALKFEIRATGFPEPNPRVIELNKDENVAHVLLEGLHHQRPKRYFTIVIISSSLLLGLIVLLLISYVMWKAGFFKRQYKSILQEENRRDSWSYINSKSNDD
# T1 sequence (P05556 21-798): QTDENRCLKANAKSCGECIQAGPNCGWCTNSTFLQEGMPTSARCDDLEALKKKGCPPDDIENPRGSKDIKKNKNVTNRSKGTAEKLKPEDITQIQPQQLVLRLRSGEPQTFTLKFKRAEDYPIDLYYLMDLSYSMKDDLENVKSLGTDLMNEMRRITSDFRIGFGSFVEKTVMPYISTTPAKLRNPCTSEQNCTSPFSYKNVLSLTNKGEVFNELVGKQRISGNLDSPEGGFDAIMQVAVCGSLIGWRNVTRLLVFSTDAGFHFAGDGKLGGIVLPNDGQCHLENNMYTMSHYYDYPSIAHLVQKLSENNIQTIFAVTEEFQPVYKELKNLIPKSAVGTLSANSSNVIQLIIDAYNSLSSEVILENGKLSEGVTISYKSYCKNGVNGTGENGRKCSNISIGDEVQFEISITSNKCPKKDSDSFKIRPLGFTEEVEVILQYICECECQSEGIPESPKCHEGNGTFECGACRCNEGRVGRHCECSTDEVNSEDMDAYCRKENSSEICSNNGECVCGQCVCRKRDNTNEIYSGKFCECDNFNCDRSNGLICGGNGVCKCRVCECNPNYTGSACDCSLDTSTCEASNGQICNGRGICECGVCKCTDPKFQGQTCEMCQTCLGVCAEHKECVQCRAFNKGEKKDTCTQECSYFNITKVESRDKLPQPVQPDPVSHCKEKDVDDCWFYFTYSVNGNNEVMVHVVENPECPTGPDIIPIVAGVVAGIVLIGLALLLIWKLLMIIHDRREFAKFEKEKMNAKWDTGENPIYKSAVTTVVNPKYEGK
# Protocol: The CS-1 derived peptide, CLHPGEILDVPST, and the scrambled control peptide, CLHGPIELVSDPT, were synthesized on a Beckman 990 synthesizer using t-Boc methodology. The peptides were immobilized onto microtiter plates using the heterobifunctional crosslinker 3-(2-pyridyldithio)propionic acid N-hydroxysuccinimide ester (SPDP) as reported by Pierschbacher et al., Proc. Natl. Acad. USA, 80:1224-1227 (1983). Microtiter plates were coated with 20 μg/ml HSA for 2 hr. at room temperature, washed once with PBS and derivatized with 10 μg/ml SPDP for 1 hr. After washing, 100 μl of a 100 μg/ml cysteine containing peptide solution which had been recently dissolved was added to the wells and allowed to crosslink to the plates overnight at 4° C. Unbound peptide was removed from plates by washing with PBS. To block non-reacted sites, the plates are coated with 100 μl of a 2.5 mg/ml BSA solution in PBS for 1 hr. at 37° C. 100 μl of Jurkat cells (2.5×10^6 cells/ml) in DMEM plus BSA (2.5 mg/ml) was mixed with an appropriate concentration of the compound to be tested and the mixture was added to peptide coated dishes and incubated for 1 hr. at 37° C. Generally 100, 20, 5 and 1.25 μM concentrations of the compound were tested.
# Following this incubation the plates were washed once with PBS and the attached cells were fixed with 3% paraformaldehyde in PBS and stained with 0.5% toluidine blue in 3.7% formaldehyde. The cells were stained overnight at room temperature and the optical density at 590 nm of toluidine blue stained cells was determined using a vertical pathway spectrophotometer to quantitate attachment (VMAX Kinetic Microplate Reader, Molecular Devices, Menlo Park, Calif.). This procedure is a modification of a previously published method (Cardarelli et al, J. Biol. Chem., 269:18668-18673 (1994) and Cardarelli et al, Proc. Natl. Acad. Sci. USA, 83:2647-2651 (1986)).
# [2] = molecular target: T2, α4β1 integrin (Jurkat T-cell adhesion to IL-1 stimulated endothelial cell monolayers) (Homo sapiens, UniProt P05556+P13612); assay: Jurkat-Endothelial Cell Adhesion Assay (Jurkat EC); format: cell-based; details: Jurkat cells on IL-1 stimulated HUVEC monolayers
# T2 construct: a T-cell line, Jurkat, known to express the α4β1 integrin; host or cells: Jurkat T-cell line
# T2 sequence (P13612 34-1032): as the sequence (P13612 34-1032) above
# T2 sequence (P05556 21-798): as the sequence (P05556 21-798) above
# Protocol: The following assay established the activity of the present compounds in inhibiting β1-mediated cell adhesion in a representative in vitro system. This assay measures the adhesive interactions of a T-cell line, Jurkat, known to express the α4β1 integrin, to endothelial monolayers in the presence of test compounds. The test compounds were added in increasing concentrations to T-cells and then the T-cell compound mixture was added to IL-1 stimulated endothelial cell monolayers. The plates were incubated, washed and the percentage of attached cells was quantitated. […] Human umbilical vein endothelial cells were purchased from Clonetics (San Diego, Calif.) at passage number 2. The cells were grown on 0.5% porcine skin gelatin pre-coated flasks (Sigma, St. Louis Mo.) in EGM-UV media (Clonetics, San Diego, Calif.) supplemented with 10% fetal bovine serum. Cells are refed every 2-3 days reaching confluence by day 4 to 6. […] The endothelial cells are not used following passage 6. Am The T-cell line Jurkat was obtained from American Type Tissue Culture Collection (Rockville, Md.) and the cells were cultured in RPMI containing 10% fetal calf serum. The cells were washed twice in Hank's Balanced Salt Solution (HBSS) and resuspended in Dulbecco's […] Eagle's Media (DMEM) containing 2.5 mg/ml Human Serum Albumin (HSA). Jurkat cells (1×10^6 cells/ml) were stained with 10 ng/ml BCECF-AM z z (Molecular Probes, Eugene, Ore.)) in HBSS without phenol red. The cells were loaded with BCECF for 60 minutes in the dark at 37° C., washed 2 times, and resusupended in DMEM-HSA solution.
# Confluent endothelial monolayers, grown in 96-well tissue culture plates, were stimulated for 4 hr. at 37° C. with 0.1 ng/ml (˜50 U/ml) recombinant IL-1 (Amgen, Thousand Oaks, Calif.). Following this incubation, the monolayers were washed twice with HBSS and 0.1 ml of DMEM-HSA solution was added. Jurkat cells (5×10^5 cells) were combined with the appropriate concentration of the test compound and 0.1 ml of the Jurkat cell-compound mixture was added to the endothelial cell monolayers. Generally, 100, 20, 5 and 1.25 μM compound concentrations were tested. […] The plates were placed on ice for 5 minutes to allow for Jurkat cell settling and the plates were incubated at 37° C. for 20 minutes. Following this incubation, the monolayers were washed twice with PBS containing 1 mM calcium chloride and 1 mM magnesium chloride and the plates were read using a Millipore Cytofluor 2300 (Marlboro, Mass.). Fluorescence in each well was measured as Arbitrary Fluorescence Units and percent adhesion in the absence of compound was adjusted to 100% and the % adhesion in the presence of compound was calculated. Monolayers were also fixed in 3% paraformaldehyde and evaluated microscopically to verify the adhesion. This procedure is a modification of a previously published method (Cardarelli et al., J. Biol. Chem. 269:18668-18673 (1994)).
melting point,IC50 [1] [nM],IC50 [2] [nM],Compound
146 to 149 °C,500 to 1000,–,"CC1(C)[C@@H](C(=O)N[C@@H](Cc2ccc(OCc3ccccc3)cc2)C(=O)O)CC[C@@]1(C)C(=O)O [Example 2, (1S-cis)-N-[(3-Carboxy-2,2,3-trimethylcyclopentyl)carbonyl]-O-(phenylmethyl)-L-tyrosine]"
102 to 105 °C,500 to 1000,5000 to 10000,CC1(C)[C@@H](C(=O)N[C@@H](Cc2ccc(OCC3CCCCC3)cc2)C(=O)O)CC[C@@]1(C)C(=O)O [Example 13]
94 to 97 °C,–,5000 to 10000,CCCCC(CC)COc1ccc(CC(NC(=O)C2CCC(C)(C(=O)O)C2(C)C)C(=O)O)cc1 (centres unmarked) [Example 14]
258 to 259 °C (dec.),500 to 1000,5000 to 10000,CC1(C)[C@@H](C(=O)N[C@@H](Cc2cn(Cc3ccccc3)cn2)C(=O)O)CC[C@@]1(C)C(=O)O [Example 29]
88 to 90 °C,–,800 to 5000,CC1(C)[C@@H](C(=O)N[C@@H](Cc2cccc(OCc3ccccc3)c2)C(=O)O)CC[C@@]1(C)C(=O)O [Example 46]
168 to 171 °C,80 to 500,800 to 5000,CC1(C)[C@@H](C(=O)N[C@@H](Cc2ccc(O)c(NC(=O)c3c(Cl)cccc3Cl)c2)C(=O)O)CC[C@@]1(C)C(=O)O [Example 61]
151 to 154 °C,–,800 to 5000,CC1(C)[C@@H](C(=O)N[C@@H](Cc2ccc(NC(=O)C3CCCCC3)cc2)C(=O)O)CC[C@@]1(C)C(=O)O [Example 75]
102 to 104 °C,80 to 500,800 to 5000,CC1(C)[C@@H](C(=O)N[C@@H](Cc2ccc(NC(=O)c3ccccn3)cc2)C(=O)O)CC[C@@]1(C)C(=O)O [Example 77]
238 to 240 °C,–,5000 to 10000,CC(=O)Nc1ccc(C[C@H](NC(=O)[C@H]2CC[C@@](C)(C(=O)O)C2(C)C)C(=O)O)cc1 [Example 79]
195 to 198 °C,80 to 500,≤ 800,Cc1cccc(C)c1C(=O)Nc1ccc(C[C@H](NC(=O)[C@H]2CC[C@@](C)(C(=O)O)C2(C)C)C(=O)O)cc1 [Example 81]
150 to 152 °C,≤ 80,≤ 800,CC1(C)[C@@H](C(=O)N[C@@H](Cc2ccc(NC(=O)c3c(F)cccc3F)cc2)C(=O)O)CC[C@@]1(C)C(=O)O [Example 83]
145 to 148 °C,80 to 500,5000 to 10000,CC1(C)[C@@H](C(=O)N[C@@H](Cc2ccc(NC(=O)c3ccccc3)cc2)C(=O)O)CC[C@@]1(C)C(=O)O [Example 85]
155 to 158 °C,≤ 80,≤ 800,CC1(C)[C@@H](C(=O)N[C@@H](Cc2ccc(NC(=O)c3cc(Cl)ccc3Cl)cc2)C(=O)O)CC[C@@]1(C)C(=O)O [Example 87]
190 to 193 °C,80 to 500,800 to 5000,CC1(C)[C@@H](C(=O)N[C@@H](Cc2ccc(NC(=O)c3cccc(C(=O)c4ccccc4)c3)cc2)C(=O)O)CC[C@@]1(C)C(=O)O [Example 89]
146 to 149 °C,≤ 80,800 to 5000,CC1(C)[C@@H](C(=O)N[C@@H](Cc2ccc(NC(=O)c3cccc([N+](=O)[O-])c3)cc2)C(=O)O)CC[C@@]1(C)C(=O)O [Example 91]
212 to 214 °C,–,800 to 5000,CCCCCCCc1ccc(C(=O)Nc2ccc(C[C@H](NC(=O)[C@H]3CC[C@@](C)(C(=O)O)C3(C)C)C(=O)O)cc2)cc1 [Example 122]
146 to 148 °C,–,800 to 5000,CC(C)CC(=O)Nc1ccc(C[C@H](NC(=O)[C@H]2CC[C@@](C)(C(=O)O)C2(C)C)C(=O)O)cc1 [Example 134]
148 to 150 °C,500 to 1000,–,CC1(C)[C@@H](C(=O)N[C@@H](Cc2ccc(NC(=O)c3ccccc3O)cc2)C(=O)O)CC[C@@]1(C)C(=O)O [Example 143]
70 to 72 °C,500 to 1000,–,CONC(=O)[C@]1(C)CC[C@H](C(=O)N[C@@H](Cc2ccc(OCc3c(Cl)cccc3Cl)cc2)C(=O)O)C1(C)C [Example 163]
241 to 244 °C,–,5000 to 10000,CC(=O)N(Cc1c(Cl)cccc1Cl)c1ccc(C[C@H](NC(=O)[C@H]2CC[C@@](C)(C(=O)O)C2(C)C)C(=O)O)cc1 [Example 170]
232 to 233 °C,–,–,"COC(=O)[C@H](Cc1ccc(NC(=O)c2c(Cl)cccc2Cl)cc1)NC(=O)[C@H]1CC[C@@](C)(C(=O)NCC(N)=O)C1(C)C [Example 233, (1S-cis)-N-[[3-[[(2-Amino-2-oxoethyl)amino]carbonyl]-2,2,3-trimethylcyclopentyl]carbonyl]-4-[(2,6-dichlorobenzoyl)amino]-L-phenylalanine methyl ester]"
263 to 267 °C,–,–,"CC1(C)[C@@H](C(=O)N[C@H](Cc2ccc(NC(=O)c3c(Cl)cccc3Cl)cc2)C(=O)O)CC[C@@]1(C)C(=O)O [Example 237, (1S-cis)-N-[(3-Carboxy-2,2,3-trimethylcyclopentyl)carbonyl]-4-[(2,6-dichlorobenzoyl)amino]-D-phenylalanine]"
152 to 157 °C,–,–,"CC1(C)[C@H](C(=O)O)CC[C@]1(C)C(=O)N[C@@H](Cc1ccc(NC(=O)c2c(Cl)cccc2Cl)cc1)C(=O)O [Example 244, (1S-cis)-N-[(3-Carboxy-1,2,2-trimethylcyclopentyl)carbonyl]-4-[(2,6-dichlorobenzoyl)amino]-L-phenylalanine]"
145 to 150 °C,–,–,"CC1(C)[C@@H](C(=O)O)CC[C@]1(C)C(=O)N[C@H](Cc1ccc(NC(=O)c2c(Cl)cccc2Cl)cc1)C(=O)O [Example 246, (1S-trans)-N-[(3-Carboxy-1,2,2-trimethylcyclopentyl)carbonyl]-4-[(2,6-dichlorobenzoyl)amino]-D-phenylalanine]"
148 to 155 °C,–,–,"CC1(C)[C@H](C(=O)O)CC[C@@]1(C)C(=O)N[C@@H](Cc1ccc(NC(=O)c2c(Cl)cccc2Cl)cc1)C(=O)O [Example 250, (1R-trans)-N-[(3-Carboxy-1,2,2-trimethylcyclopentyl)carbonyl]-4-[(2,6-dichlorobenzoyl)amino]-L-phenylalanine]"
150 to 152 °C,–,–,"CC1(C)[C@@H](C(=O)N[C@@H](Cc2ccc(NC(=O)c3c(Cl)cccc3Cl)c(Br)c2)C(=O)O)CC[C@@]1(C)C(=O)O [Example 252, (1S-cis)-N-[(3-Carboxy-2,2,3-trimethylcyclopentyl)carbonyl]-3-bromo-4-[(2,6-dichlorobenzoyl)amino]-L-phenylalanine]"
